Assay [1] concerns alpha-glucosidase enzyme. The assay is described as follows: Enzyme kinetic study (Lineweaver-Burk plot, secondary plot). It is filed as biochemical, Saccharomyces cerevisieae. The method, then: To determine the mode of inhibition, the enzyme kinetic procedure was performed as described by Sakulkeo et al.. The double reciprocal Lineweaver–Burk plot was constructed and used for the mode of action determination. The inhibition constant (Ki) was conducted from the secondary plot. Briefly, the 5 concentrations of substrate pNPG (2.5–0.125 mM), the enzyme from Saccharomyces cerevisieae (EC 3.2.1.20) at 1 unit/mL, and 3 concentrations of sample were tested in triplicate.

Assay [2] concerns alpha-glucosidase enzyme. The assay is described as follows: Alpha-glucosidase inhibitory activity, enzymatic assay with pNPG. Format: biochemical, Saccharomyces cerevisiae. The following applies: for IC50: purchased standards, DMSO co-solvent not more than 5%. The method, then:
All extracts and isolated compounds were examined for their alpha-glucosidase inhibitory activity according to Dej-adisai and Pitakput, 2015 [23]. Briefly, 0.01 M phosphate buffer (50 μL), samples or standard solution (50 μL), and alpha-glucosidase enzyme solution (50 μL) were added to the well plate. The mixture solution was incubated at 37 °C for 2 min. Next, para-nitrophenyl-α-D-glucopyranoside solution (50 μL) was added. The enzymatic inhibition was evaluated from the yellow final product, p-nitrophenol (pNP). The color of the reaction was detected by visible light at 405 nm of SPECTROstar Nano spectrophotometer (BMG Labtech, Ortenberg, Germany). The product absorption was converted to velocity (V) by using Equation (1). Then, the velocity was used to calculated the percentage of inhibition by Equation (2). Furthermore, the ability of sample was performed by IC50 value, which was generated from the calibration curve of percentages of inhibition at five different sample concentrations. Velocity = ∆ Absorbance at 405 nm/∆ Time(1) % Inhibition = [(Vcontrol − Vsample)/Vcontrol] × 100(2)

Assay [3] has as its system alpha-glucosidase enzyme. The following applies: cited from earlier work.

We go through seven compounds from paper PMC9736281, “Flavonoid Constituents and Alpha-Glucosidase Inhibition of Solanum stramonifolium Jacq. Inflorescence with In Vitro and In Silico Studies” (Molecules, 2022).

In general, % Inhibition refers to the share of the control response that was lost under treatment. A higher % Inhibition goes with a response far below the control. What is called IC50 is the concentration that gives 50% inhibition. A lower IC50 goes with higher potency.

≈ marks a conversion by molar mass, not a printed value. Read-outs that look alike come from different tables or passages of the source.

On to `C[C@H]1O[C@H](O[C@H]2[C@H](O)[C@@H](O)[C@@H](O[C@H]3[C@H](O)[C@@H](O)C(O)O[C@@H]3CO)O[C@@H]2CO)[C@H](O)[C@@H](O)[C@@H]1N[C@H]1C=C(CO)[C@@H](O)[C@H](O)[C@H]1O` (stereo partly drawn) [Acarbose, acarbose, reference compound], for which the “Inhibition Type” value with alpha-glucosidase enzyme [1] is “Competitive”. Also, in the assay on alpha-glucosidase enzyme [2] (alpha-glucosidase), the “% Inhibition at 200 μg/mL” value came to 45.27 ± 4.5% and the “% Inhibition at 400 μg/mL” value was found to be 60.78 ± 3.61%. Further, the “% Inhibition at 2 mg/mL” value in the assay with alpha-glucosidase enzyme [2] (alpha-glucosidase, sample at 2 mg/mL) was 76.44 ± 3.06%.

With `COc1cc(O)c2c(=O)c(OC)c(-c3cc(O)c(OC)c(OC)c3)oc2c1` [Compound 1, myricetin 3, 4′, 5′, 7-tetramethyl ether], the “% Inhibition at 400 μg/mL” value with alpha-glucosidase enzyme [2] (alpha-glucosidase) is 12.78 ± 4.89%.

For `COc1cc(O)c2c(=O)c(OC)c(-c3cc(OC)c(OC)c(OC)c3)oc2c1` [Compound 2, 5-hydroxy-3,7,3′,4′,5′-pentamethoxyflavone], the “% Inhibition at 400 μg/mL” value in the assay with alpha-glucosidase enzyme [2] (alpha-glucosidase) turned out to be 8.51 ± 3.79%.

Consider `O=c1c(O)c(-c2ccc(O)cc2)oc2cc(O)cc(O)c12` [Compound 3, kaempferol], for which the Inhibition Type result in the assay with alpha-glucosidase enzyme [3] (ref [13],[14]) is “mixed-type”; with alpha-glucosidase enzyme [3] (ref [15]), “non-competitive”; with alpha-glucosidase enzyme [1] (listed as Kaempferol) it was “Mixed”; in the assay with alpha-glucosidase enzyme [1] (listed as kaempferol), “mixed-type”. Moreover, the “% Inhibition at 400 μg/mL” value in the assay with alpha-glucosidase enzyme [2] (alpha-glucosidase) came out at 13.01 ± 2.69%. The compound also showed a 50% inhibitory concentration (IC50) on alpha-glucosidase enzyme [2] of 585.63 µg/mL (≈ 2050 µM).

Take `O=c1c(O)c(-c2ccc(O)cc2)oc2cc(O[C@@H]3O[C@H](CO)[C@@H](O)[C@H](O)[C@H]3O)cc(O)c12` [Compound 4, kaempferol 7-O-β-glucopyranoside]: the “% Inhibition at 400 μg/mL” value in the assay on alpha-glucosidase enzyme [2] (alpha-glucosidase) came to 7.68 ± 0.33%.

In the case of `COc1cc(O)c2c(=O)c(OC)c(-c3cc(OC)c(OC)c(OC4OC(CO)C(O)C(O)C4O)c3)oc2c1` (stereo not drawn) [Compound 5, 5-hydroxy 3-7-4′-5′-tetramethoxyflavone-3′-O-glucopyranoside], the “% Inhibition at 200 μg/mL” value in the assay with alpha-glucosidase enzyme [2] (alpha-glucosidase) was 0.84 ± 0.21%.

On to `O=c1c(OC2O[C@H](CO)[C@@H](O)[C@H](O)[C@H]2O)c(-c2ccc(O)cc2)oc2cc(O)cc(O)c12` (stereo partly drawn) [Compound 6b, kaempferol 3-O-glucopyranoside], for which the Inhibition Type entry with alpha-glucosidase enzyme [3] (ref [16]) was “non-competitive”; in the assay on alpha-glucosidase enzyme [1] (listed as Astragalin), “Mixed”; with alpha-glucosidase enzyme [1] (listed as astragalin), “mixed-type”. At alpha-glucosidase enzyme [2], the IC50 is listed as greater than 600 µg/mL.
